Assay [1] addresses T1, PvBSAS4;1 (beta-substituted alanine synthase 4;1, cytosolic cysteine synthase) (Phaseolus vulgaris, UniProt V7BIJ9).
T1 construct: gene PHAVU_007G185200g
In words: acid-ninhydrin colorimetric assay of cysteine formation, […] nm. Type of assay: biochemical.

The target in assay [2] is T1, PvBSAS4;1 (beta-substituted alanine synthase 4;1, cytosolic cysteine synthase). In words: acid-ninhydrin colorimetric assay, Lineweaver-Burk plot. Type of assay: biochemical. To be noted: 2 to 8 mM O-acetylserine, 1.5 mM sodium sulfide, 100 mM MOPSO pH 7.0, 25 °C; apparent values plotted against benzoic acid concentration.
The target is the same in assay [3]. In words: X-ray crystal structure, […] Å. Type of assay: binding.

T1 sequence (V7BIJ9 entry or part of it): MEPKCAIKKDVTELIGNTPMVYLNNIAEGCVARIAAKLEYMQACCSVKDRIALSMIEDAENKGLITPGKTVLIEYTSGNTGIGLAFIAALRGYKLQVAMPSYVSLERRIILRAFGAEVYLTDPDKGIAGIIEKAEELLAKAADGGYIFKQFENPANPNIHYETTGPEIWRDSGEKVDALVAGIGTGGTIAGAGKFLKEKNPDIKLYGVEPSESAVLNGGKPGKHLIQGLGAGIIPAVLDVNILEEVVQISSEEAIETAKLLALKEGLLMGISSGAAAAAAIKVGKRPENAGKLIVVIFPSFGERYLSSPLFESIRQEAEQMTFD

Usually IC50 stands for the concentration that gives 50% inhibition. A low value points to higher potency. As to `O=C(O)c1ccccc1O` [salicylic acid], the IC50 in assay [1] amounted to 600 µM.

Turning to `CC(=O)OC[C@H](N)C(=O)O` [OAS, O-acetylserine], in assay [2], the Ks app result was “the replot of Ks app versus the concentration of inhibitor”.

For the compound `O=C(O)c1ccccc1` [BEZ, benzoic acid], the “X-ray crystal structure, 1.60 Å” value in assay [3] (co-purified from E. coli, active site, near PLP (internal aldimine), carboxylate bound by Thr76, Ser77, Asn79, Thr80, Gln150) is “contains the PLP prosthetic group and a molecule of benzoic acid (Fig. 3A)”. This compound also came in with a concentration for half-maximal inhibition (IC50) in assay [1] of around 600 µM.

Consider `Cc1ncc(COP(=O)(O)O)c(C=O)c1O` [PLP, pyridoxal 5′-phosphate], for which, in assay [3] (covalent internal aldimine with Lys48, co-purified), the “X-ray crystal structure, 1.60 Å” value is recorded as “PLP is stabilized by a covalent bond to Lys48, creating an internal aldimine”.
